Here are results for two compounds from patent US5219884A, “Immunosuppressant” (Taito Co., Ltd., priority 1990, dated 1993).

The test system of series [1] is human allogenic MLR (peripheral blood lymphocytes). Briefly: human allogenic MLR-suppressive activity. The format is cell-based. On the procedure: The human allogenic MLR-suppressive activity was assayed as follows:
Human peripheral blood lymphocytes obtained by Ficoll-Paque density gradient centrifugation of normal human peripheral blood were suspended in the RPMI1640 medium supplemented with 10% FCS, placed in plastic dishes, and incubated at 37° C. in an atmosphere of 5% carbon dioxide for 2 hours. After termination of incubation, the supernatant after gentle pipetting was harvested and centrifuged (1000 rpm, for 5 minutes) to obtain plastic-nonadherent cells. The plastic-nonadherent cells were allowed to pass through a nylon-wool column to give nylon-nonadherent cells, and the concentration of the cell suspension was adjusted to 4×10^6 cells/ml by using the RPMI1640 culture medium supplemented with 10% FCS, and used as the responder cell suspension.
The plastic-adherent cells were removed from the plastic dish by vigorous pipetting after addition of phosphate buffered saline supplemented with 5% FCS and 0.02% disodium ethylenediamine-tetraacetic acid (EDTA). The plastic-adherent cells were treated with 40 μg/ml of mitomycin C at 37° C. for 60 minutes, washed three times, and suspended to the concentration of 4×10^6 cells/ml in the RPMI1640 culture medium supplemented with 10% FCS. The resultant suspension was used as the stimulator cell suspension. Fifty μl of the responder cell suspension from the donor A or C was mixed with 50 μl of the stimulator cell suspension from the donor B or D, to which 100 μl of the test substance was added, and cultured at 37° C. in the an atmosphere 5% carbon dioxide for 5 days.
After termination of the culture, 1.0 μCi/well of ^3 H-thymidine was added, and after 18 hours of culture, the cells were harvested by a cell-harvester. The radioactivity incorporated into the cells was measured by a liquid scintillation counter as the index of blastogenic response of lymphocytes in human allogenic MLR. The suppression of human allogenic MLR was evaluated by calculating the percent suppression by the following formula. [formula]

The test system of series [2] is anti-sheep red blood cell antibody production in BALB/c mice. Briefly: suppression of mouse anti-sheep red blood cell antibody production (PFC). The format is in vivo. On the procedure: (§1) Males 5- to 7-week-old BALB/c mice were immunized with sheep red blood cells (SRBC), and the spleen was resected three or four days later. By counting the plaque forming cells (PFC), suppressive effect on the production of the anti-sheep red blood cell antibody was examined as follows.
(§2) BALB/c mice were immunized with SRBC (1×10^7 cells/mouse, intravenous administration), and ISP-I in the Example 1 was administered intraperitoneally for 4 consecutive days from the day of immunization. Four days after immunization (the next day of the final administration), the spleen was resected and the anti-sheep red blood cell antibody-producing cells were determined by the direct plaque method. At the same time the body weight of the mouse, wet weight of the thymus and the spleen, and numbers of spleen cells were also determined.
(§3) BALB/c mice were immunized with SRBC (5×10^7 cells/mouse, intravenous administration), and the compound in the Example 5 was administered intraperitoneally for 4 consecutive days from the day of immunization. Four days after immunization (the next day of the final administration), the spleen was resected, and the anti-sheep red blood cell antibody-producing cells were determined by the direct plaque method. At the same time, the body weight of the mouse, wet weight of the thymus and the spleen, and numbers of spleen cells were also determined.

In series [3] the test system is IL2-dependent mouse cell line CTLL-2. Nature of the series: suppression of IL-2 induced 3H-thymidine incorporation of CTLL-2. The format is cell-based. Conditions: 72 hrs, second run (control 30168 cpm); for inhibition at 0.1 µg/mL / inhibition at 1 µg/mL: Mus musculus, CTLL-2; for inhibition at 0.1 µg/mL: read-out: Suppression. On the procedure:
IL2-dependent mouse cell line CTLL-2 cells were suspended in the RPMI1640 culture medium supplemented with 30% FCS to a concentration of 2×10^5 cells/ml. The suspension (50 μl) and 50 μl of concanavalin A-stimulated rat spleen cell culture supernatants containing IL2 were added to each well of 96-well microculture plates in which 100 μl of the test substance had been placed. After culturing at 37° C. in an atmosphere of 5% carbon dioxide for 20, 44, or 68 hours, 0.5 μCi/well of ^3 H-thymidine was added, and cultured for 4 hours under the same conditions. After termination of the culture, the cells were harvested by a cell harvester, and the radioactivity incorporated into the cells was measured by a liquid scintillation counter.

The nature of series [4]: body weight, wet weight of thymus and spleen, number of spleen cells in SRBC-immunized mice. The note with it: 10 mg/kg/day. The series is classed as in vivo, mouse. On the procedure: as §1, §2, §3
Setting [5] is: Experiment 2, 10 mg/kg/day i.p., 4 days.

Molecules are shown by their SMILES. Values after ≈ are worked out from the molar mass of the structure shown. Where two headings read alike, the source gives them in different places.

In the case of `CCCCCCC(=O)CCCCCCCCCC(O)C(O)C(N)(CO)C(=O)O` (stereo not drawn) [Example 5], the inhibition at 0.0001 µg/mL turned out to be 14.4% in series [1] (Homo sapiens, Lymphocyte, donor A/donor B, 0.0001 μg/ml, read-out: Suppression) and 54.7% in series [1] (Homo sapiens, Lymphocyte, donor C/donor D, 0.0001 μg/ml, read-out: Suppression). Further, the inhibition at 0.001 µg/mL in series [1] (Homo sapiens, Lymphocyte, donor A/donor B, 0.001 μg/ml, read-out: Suppression) was found to be 42.8%; in series [1] (Homo sapiens, Lymphocyte, donor C/donor D, 0.001 μg/ml, read-out: Suppression), 48.3%. For the same compound, the inhibition at 0.01 µg/mL in series [1] (Homo sapiens, Lymphocyte, donor A/donor B, 0.01 μg/ml, read-out: Suppression) was 59.4%; in series [1] (Homo sapiens, Lymphocyte, donor C/donor D, 0.01 μg/ml, read-out: Suppression) it was 58.1%. Further, the inhibition at 0.1 µg/mL is 87.1% in series [1] (Homo sapiens, Lymphocyte, donor A/donor B, 0.1 μg/ml, read-out: Suppression); 84.7% in series [1] (Homo sapiens, Lymphocyte, donor C/donor D, 0.1 μg/ml, read-out: Suppression); 13.5% in series [3] (0.1 μg/ml). The inhibition at 1 µg/mL in series [1] (Homo sapiens, Lymphocyte, donor A/donor B, 1 μg/ml, read-out: Suppression) turned out to be 85.4%; in series [1] (Homo sapiens, Lymphocyte, donor C/donor D, 1 μg/ml, read-out: Suppression), 80.5%; in series [3] (1 μg/ml), 95.1%. Besides, the inhibition at 10 µg/mL in series [1] (Homo sapiens, Lymphocyte, donor A/donor B, 10 μg/ml, read-out: Suppression) is 99.8%. Moreover, in series [1] (Homo sapiens, Lymphocyte, donor C/donor D, 0.00001 μg/ml, read-out: Suppression), the inhibition at 10 pg/mL came out at 32.3%. In series [1] (Lymphocyte, human allogenic MLR, read-out: 50%-inhibition concentration (IC50)), the IC50 is 0.35 ng/mL (≈ 0.867 nM). Further, the 3H-thymidine uptake in series [1] (donor A/donor B, 0.0001 μg/ml) turned out to be 20789 cpm; in series [1] (donor A/donor B, 0.001 μg/ml), 14690 cpm; in series [1] (donor A/donor B, 0.01 μg/ml), 11130 cpm; in series [1] (donor A/donor B, 0.1 μg/ml) it was 5181 cpm; in series [1] (donor A/donor B, 1 μg/ml) it was 5548 cpm; in series [1] (donor A/donor B, 10 μg/ml) it was 2439 cpm. In addition, the 3H-thymidine uptake in series [1] (donor C/donor D, 0.00001 μg/ml) is recorded as 11827 cpm; in series [1] (donor C/donor D, 0.0001 μg/ml) it was 7941 cpm; in series [1] (donor C/donor D, 0.001 μg/ml), 9057 cpm; in series [1] (donor C/donor D, 0.01 μg/ml) it was 7346 cpm; in series [1] (donor C/donor D, 0.1 μg/ml), 2746 cpm; in series [1] (donor C/donor D, 1 μg/ml), 3466 cpm. Also, the 3H-thymidine uptake in series [3] (0.1 μg/ml) was 26108 cpm; in series [3] (1 μg/ml) it was 1532 cpm. The “Number of PFC per 1 × 10^7 cell” value in series [2] (setting [5]) is reported as 5.6 ± 1.7 × 10^3 /1 × 10^7 cell. In addition, the “Number of PFC per spleen” value in series [2] (setting [5]) is given as 12.9 ± 3.9 × 10^4 /spleen. The same compound yielded a Body weight in series [4] (Experiment 2) of 24 ± 1 g. In series [4] (Experiment 2), the “Number of spleen cells” value is reported as 2.3 ± 0.3 × 10^8 cell. This compound displayed a Wet weight spleen in series [4] (Experiment 2) of 239 ± 40 mg. In addition, in series [4] (Experiment 2), the Wet weight thymus amounted to 52 ± 5 mg.
On to `CCCCCCC(O)CCCCCC/C=C/CC1OC(=O)C(N)(CO)C1O` (stereo not drawn) [Example 8], for which, in series [2] (Table 12B, 10 mg/kg/day), the “Number of PFC per 1 × 10^7 cell” value is reported as 6.7 ± 1.2 × 10^3 /1 × 10^7 cell and the “Number of PFC per spleen” value is 8.5 ± 1.9 × 10^4 /spleen. Besides, in series [3] (0.1 μg/ml), the 3H-thymidine uptake came to 7262 cpm and the inhibition at 0.1 µg/mL came to 76.1%. Also, in series [3] (1 μg/ml), the 3H-thymidine uptake is 1591 cpm and the inhibition at 1 µg/mL came out at 94.9%. Further, in series [4] (Table 12B), the Body weight turned out to be 18 ± 1 g, the “Number of spleen cells” value is on record as 1.3 ± 0.2 × 10^8 cell, the Wet weight spleen came out at 103 ± 30 mg and the Wet weight thymus was determined as 25 ± 9 mg.
